Source: US10758549B2, “Compositions of obeticholic acid and methods of use” (Intercept Pharmaceuticals, Inc., priority 2015, dated 2020)
Converted amounts (≈) assume the structure as drawn.

Assays:
[1] = Hepatic impairment study, single dose of 10 mg OCA; format: in vivo, human; conditions: hepatically-impaired patients
Description: The mean total OCA concentration-time profiles in this study are shown in FIG. 16 and the mean PK parameters (Cmax and AUCt) for total OCA in plasma for normal healthy volunteers and subjects with various categories of hepatic impairment are quantified in Table 27.
Development of the PK model for the physiological changes associated with hepatic impairment used 928 plasma sample concentrations of OCA, glyco-OCA, and tauro-OCA from 32 subjects-8 subjects each with mild, moderate, severe hepatic impairment and normal hepatic function. Subjects were administered a single 10 mg dose of OCA. […] Participants were 90.6% white, 3.1% black, 3.1% Asian, and 3.1% other. Mean Child-Pugh Score was 8.0 (2.0) (Child-Pugh Score: Class A/Mild 5-6 points, Class B/Moderate 7-9 points, Class C/Severe 10-15 points). The percentage of BLQ samples with imputed concentrations was 16.8%, 5.4%, and 9.6% for OCA, glyco-OCA, and tauro-OCA, respectively.

[2] = target: T1, farnesoid X receptor (FXR) (Homo sapiens, UniProt Q96RI1); conditions: FXR agonism; cited from earlier work
T1 sequence (Q96RI1 1-486): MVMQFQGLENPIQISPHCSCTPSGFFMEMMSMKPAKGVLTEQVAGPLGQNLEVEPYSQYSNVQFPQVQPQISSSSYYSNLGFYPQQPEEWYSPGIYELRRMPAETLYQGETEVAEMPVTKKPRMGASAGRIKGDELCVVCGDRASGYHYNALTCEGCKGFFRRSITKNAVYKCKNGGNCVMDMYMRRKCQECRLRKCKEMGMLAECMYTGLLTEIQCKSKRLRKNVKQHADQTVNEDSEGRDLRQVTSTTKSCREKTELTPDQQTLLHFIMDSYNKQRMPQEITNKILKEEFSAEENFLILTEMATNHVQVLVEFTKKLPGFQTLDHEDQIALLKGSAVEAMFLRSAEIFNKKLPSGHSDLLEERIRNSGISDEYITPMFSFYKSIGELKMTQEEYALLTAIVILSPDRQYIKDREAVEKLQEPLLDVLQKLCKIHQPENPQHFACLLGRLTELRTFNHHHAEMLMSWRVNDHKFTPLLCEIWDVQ

PBC patients = test: Example 7: 12-week placebo-controlled OCA monotherapy study (10 mg, 50 mg) in PBC; format: in vivo, human; conditions: for ALP Change from Baseline to Day 85/ET, Mean / ALP Level at Day 85/ET, Mean / ALP Level at Day 85/ET, Median / Percent Change in ALP from Baseline to EOS, Mean (SD) / Percent Change in ALP from Baseline to EOS, Median / GGT level at Day 85/ET, mean (SD): ITT
Experimental: This example describes a study of two doses of OCA (10 mg and 50 mg) vs. placebo for a period of 12 weeks (85 days). The study was completed by 48 patients and PK data are available for 34 patients. All patients returned to the study site for 4 visits (Day 15, Day 29, Day 57, and Day 85) for evaluations of efficacy, safety, tolerability, and compliance with investigational product.
Key Exclusion Criteria • 1. The following drugs were contraindicated: ursodeoxycholic acid (UDCA), colchicine, methotrexate, azathioprine, or systemic corticosteroids • 2. Conjugated bilirubin>2×ULN; ALT or AST>5×ULN and serum creatinine>133 μmol/L (1.5 mg/dL) • 3. History or presence of hepatic decompensation • 4. History of presence of concomitant liver diseases such as Hepatitis B or C; HIV; primary sclerosing cholangitis, alcoholic liver disease, definite autoimmune liver disease or biopsy proven nonalcoholic steatohepatitis (NASH).
The percent change (%) in serum ALP from Baseline to End of Study (EOS) was monitored. The baseline value was the mean of the pretreatment screening and day 0 evaluations. The EOS value was Day 85/ET or the last observed ALP value on treatment.
Absolute changes in serum ALP levels were monitored from Baseline to Day 15, Day 29, Day 57, Day 85/ET and Follow-Up (Day 99). The percentage of patients was calculated who met the definition of PBC responder criteria applying the Paris I, Toronto I, Toronto II, Toronto III, Toronto IV, Mayo II, and Barcelona disease prognostic risk criteria at Day 85/ET. Each patient was tested for absolute and percent change in serum aspartate aminotransferase (AST), alanine aminotransferase (ALT), gamma-glutamyl transferase (GGT), and conjugated (direct) bilirubin values from Baseline to Day 15, Day 29, Day 57, Day 85/ET and Follow-Up (Day 99).

[3] = Equilibrium solubility of OCA in various buffers at 37° C.; format: physicochemical; conditions: for solubility: aqueous buffer, 37 °C, thermodynamic from solid
Experimental: Solubility Studies of OCA in Various Buffers. A study was performed to screen different media of various pH over the pH range 1.2-10.0, incorporating the physiological pH range (1.2-6.8) for immediate release tablets.

[4] = Solubility of OCA in biologically relevant media at 37° C.; format: physicochemical; conditions: for solubility: physiologically relevant dissolution media
Description: Solubility Studies of OCA in Biological Media.

pKa = format: physicochemical

- plasma OCA exposures versus healthy subjects [1]: > 10 fold
- mean change in LDL-C at Day 85/ET (PBC patients; OCA 10 mg): +0.10 (0.58) mmol/L
- HDL-C at end of treatment (ET), mean (SD) (PBC patients; OCA 10 mg, baseline 1.73 (0.45) mmol/L): 1.57 (0.46) mmol/L
- mean change in LDL-C at Day 85/ET (PBC patients; OCA 50 mg): +0.23 (0.52) mmol/L
- HDL-C at end of treatment (ET), mean (SD) (PBC patients; OCA 50 mg, baseline 1.95 (0.55) mmol/L): 1.86 (0.56) mmol/L
- dropout rate (PBC patients; OCA 50 mg, early in treatment (<1 month)): 44%
- solubility ([3]; pH 4.1, aqueous buffer, pH 4.1 Acetate): 3 µg/mL (≈ 7.13 µM)
- solubility ([3]; pH 5.1, aqueous buffer, pH 5.1 Acetate): 23 µg/mL (≈ 54.7 µM)
- solubility ([3]; pH 6, aqueous buffer, pH 6.0 Phosphate): 50 µg/mL (≈ 119 µM)
- solubility ([3]; pH 6.8, aqueous buffer, above pH 6.8): > 10 µg/mL
- solubility ([3]; pH 6.8, aqueous buffer, pH 6.8 Phosphate (50 mM sodium phosphate dibasic)): 220 µg/mL (≈ 523 µM)
- solubility ([3]; pH 7, aqueous buffer, pH 7.0 Phosphate): 462 µg/mL (≈ 1100 µM)
- solubility ([3]; pH 8, aqueous buffer, pH 8.0 Phosphate): 486 µg/mL (≈ 1160 µM)
- solubility ([3]; pH 9, aqueous buffer, pH 9.0 Alkaline Borate): 462 µg/mL (≈ 1100 µM)
- solubility ([3]; pH 10, aqueous buffer, pH 10.0 Alkaline Borate): 56 µg/mL (≈ 133 µM)
- USP Solubility Rating ([3]; pH 1.2 Hydrochloric acid): Practically
- USP Solubility Rating ([3]; pH 2.0 Hydrochloric acid): Practically
- USP Solubility Rating ([3]; pH 3.0 Acid Phthalate): Practically
- USP Solubility Rating ([3]; pH 4.1 Acetate): Slightly soluble
- USP Solubility Rating ([3]; pH 5.1 Acetate): Sparingly soluble
- USP Solubility Rating ([3]; pH 6.0 Phosphate): Soluble
- USP Solubility Rating ([3]; pH 6.8 Phosphate): Freely soluble
- USP Solubility Rating ([3]; pH 7.0 Phosphate): Freely soluble
- USP Solubility Rating ([3]; pH 8.0 Phosphate): Freely soluble
- USP Solubility Rating ([3]; pH 9.0 Alkaline Borate): Freely soluble
- USP Solubility Rating ([3]; pH 10.0 Alkaline Borate): Soluble
- USP Solubility Rating ([4]; pH 1.2 (0.1N HCl)): Practically insoluble
- Solubility (mg/mL) ([4]; pH 1.2 (0.1N HCl), 37° C.): <LOQ
- USP Solubility Rating ([4]; pH 1.2 (FaSSGF)): Practically insoluble
- Solubility (mg/mL) ([4]; pH 1.2 (FaSSGF), 37° C.): <LOQ
- USP Solubility Rating ([4]; pH 4.5): Practically insoluble
- Solubility (mg/mL) ([4]; pH 4.5, 37° C.): <LOQ
- USP Solubility Rating ([4]; pH 5.0 (FeSSIF)): Freely soluble
- increase in OCA solubility ([4]; pH 5.0 with taurocholate and lecithin (FeSSIF) vs. pH 5.1 acetate buffer alone): 35 fold
- USP Solubility Rating ([4]; pH 6.5 (FaSSIF)): Freely soluble
- USP Solubility Rating ([4]; pH 6.8): Freely soluble
- USP Solubility Rating ([4]; pH 6.8 with surfactant): Freely soluble
- solubility ([4]; aqueous buffer, pH 6.8 (proposed dissolution medium, sodium phosphate dibasic), 37° C.): 220 µg/mL (≈ 523 µM)
- solubility ([4]; aqueous with cosolvent or surfactant or cyclodextrin, pH 6.8 with surfactant (polysorbate 80), 37° C.): 590 µg/mL (≈ 1400 µM)
- solubility ([4]; pH 5.0 (FeSSIF), 37° C.): 820 µg/mL (≈ 1950 µM)
- solubility ([4]; pH 6.5 (FaSSIF), 37° C.): 640 µg/mL (≈ 1520 µM)
- pKa (pKa): 4.82
SMILES: CC[C@H]1[C@@H](O)[C@@H]2[C@H](CC[C@]3(C)[C@@H]([C@H](C)CCC(=O)O)CC[C@@H]23)[C@@]2(C)CC[C@@H](O)C[C@@H]12 [OCA, 3α,7α-dihydroxy-6α-ethyl-5β-cholan-24-oic acid]
- potency compared to CDCA [2]: approximately 100 fold
- ALP Change from Baseline to Day 85/ET, Mean (PBC patients; OCA 10 mg (n = 20)): −233.5 U/L
- ALP Level at Day 85/ET, Mean (PBC patients; OCA 10 mg (n = 20)): 228.1 U/L
- ALP Level at Day 85/ET, Median (PBC patients; OCA 10 mg (n = 20)): 196.5 U/L
- Percent Change in ALP from Baseline to EOS, Mean (SD) (PBC patients; OCA 10 mg (n = 20)): −44.5 (24.4) %
- Percent Change in ALP from Baseline to EOS, Median (PBC patients; OCA 10 mg (n = 20)): −53.9%
- GGT level at Day 85/ET, mean (SD) (PBC patients; OCA 10 mg, baseline 653 (370) U/L): 184 (203) U/L
- AST level at Day 85/ET, mean (SD) (PBC patients; OCA 10 mg, baseline 67 (33) U/L): 54 (40) U/L
- ALT level at Day 85/ET, mean (SD) (PBC patients; OCA 10 mg, baseline 86 (44) U/L): 54 (41) U/L
- ALP Change from Baseline to Day 85/ET, Mean (PBC patients; OCA 50 mg (n = 16)): −161.3 U/L
- ALP Level at Day 85/ET, Mean (PBC patients; OCA 50 mg (n = 16)): 269.8 U/L
- ALP Level at Day 85/ET, Median (PBC patients; OCA 50 mg (n = 16)): 197.5 U/L
- Percent Change in ALP from Baseline to EOS, Mean (SD) (PBC patients; OCA 50 mg (n = 16)): −37.6 (21.0) %
- Percent Change in ALP from Baseline to EOS, Median (PBC patients; OCA 50 mg (n = 16)): −37.2%
- GGT level at Day 85/ET, mean (SD) (PBC patients; OCA 50 mg, baseline 455 (418) U/L): 202 (300) U/L
- AST level at Day 85/ET, mean (SD) (PBC patients; OCA 50 mg, baseline 66 (29) U/L): 56 (28) U/L
- ALT level at Day 85/ET, mean (SD) (PBC patients; OCA 50 mg, baseline 71 (38) U/L): 49 (29) U/L
- ALP reduction, on average (PBC patients; each OCA dose (10 mg and 50 mg monotherapy), early stage PBC): approximately 40%
